molecular target: T1, indoleamine 2, 3-dioxygenase (IDO1) (Homo sapiens, UniProt P14902); experiment: PBMC IDO1 assay (kynurenine detection via mass spectrometry); type: cell-based; conditions: human PBMC stimulated with IFN-γ and LPS, 2 days, kynurenine by mass spectrometry; read-out: IDO1 PBMC pIC50 (converted)
T1 construct: human peripheral blood mononuclear cells (PBMC) (PB003F; host or cells: human PBMC stimulated with IFN-gamma and LPS
Method in brief: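 Human PBMCs (50,000/well) stimulated with IFN-γ 100 ng/ml and LPS 50 ng/ml were exposed to 11-point 3-fold compound dilutions for 2 days at 37 °C. Supernatant kynurenine was quantified by RapidFire MS relative to an internal standard; parallel CellTiter-Glo ATP luminescence measured cytotoxicity, with four-parameter curve fitting.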

T1 sequence (P14902 whole entry): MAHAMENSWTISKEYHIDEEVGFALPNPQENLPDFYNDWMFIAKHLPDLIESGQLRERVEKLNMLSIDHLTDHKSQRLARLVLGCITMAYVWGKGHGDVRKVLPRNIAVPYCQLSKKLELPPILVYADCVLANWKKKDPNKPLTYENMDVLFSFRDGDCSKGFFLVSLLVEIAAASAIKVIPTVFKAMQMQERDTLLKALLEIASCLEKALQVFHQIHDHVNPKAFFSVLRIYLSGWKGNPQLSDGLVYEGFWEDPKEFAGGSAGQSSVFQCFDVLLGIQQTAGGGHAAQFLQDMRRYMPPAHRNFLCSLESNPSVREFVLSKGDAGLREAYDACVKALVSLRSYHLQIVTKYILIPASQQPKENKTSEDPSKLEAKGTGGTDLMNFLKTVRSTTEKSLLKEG

| IC50 | SMILES |
| --- | --- |
| 39.8 nM | COc1ccc(C(=O)N[C@@H](CC2CCN(C(=O)OC(C)(C)C)CC2)c2ccccc2)cn1 [Example 123, (S)-tert-butyl 4-(2-(6-methoxynicotinamido)-2-phenylethyl)piperidine-1-carboxylate] |
| 39.8 nM | CC(C)c1ccc(C(=O)NC(CC2CCN(C(=O)OC(C)(C)C)CC2)c2ccccc2)s1 (centres unmarked) [Example 124, tert-butyl 4-(2-(5-isopropylthiophene-2-carboxamido)-2-phenylethyl)piperidine-1-carboxylate] |
| 39.8 nM | CC(C)COC(=O)N1CCC(CC(NC(=O)c2ccc(Cl)cc2)c2ccccc2)CC1 (centres unmarked) [Example 125, isobutyl 4-(2-(4-chlorobenzamido)-2-phenylethyl)piperidine-1-carboxylate] |
| 39.8 nM | CC(C)(C)OC(=O)N1CCC(CC(NC(=O)c2ccc(Br)cc2)C2CCCC2)CC1 (centres unmarked) [Example 126, tert-butyl 4-(2-(4-bromobenzamido)-2-cyclopentylethyl)piperidine-1-carboxylate] |
| 39.8 nM | CCNc1nnc(C(CC2CCN(C(=O)OC(C)(C)C)CC2)NC(=O)c2ccc(Cl)s2)o1 (centres unmarked) [Example 127, tert-butyl 4-(2-(5-chlorothiophene-2-carboxamido)-2-(5-(ethylamino)-1,3,4-oxadiazol-2-yl)ethyl)piperidine-1-carboxylate] |
| 39.8 nM | CC(C)(C)OC(=O)N1CCC(CC(NC(=O)c2csc(Cl)c2)c2ccccc2)CC1 (centres unmarked) [Example 128, tert-butyl 4-(2-(5-chlorothiophene-3-carboxamido)-2-phenylethyl)piperidine-1-carboxylate] |
| 39.8 nM | CC(C)(C)OC(=O)N1CCC(C[C@@H](CCN2CCOCC2)NC(=O)c2ccc(Cl)s2)CC1 [Example 129, (S)-tert-butyl 4-(2-(5-chlorothiophene-2-carboxamido)-4-morpholinobutyl)piperidine-1-carboxylate] |
| 50.1 nM | Cc1ccc(C(=O)NC(CC2CCN(C(=O)OC(C)(C)C)CC2)c2ccccc2)cc1 (centres unmarked) [Example 130, tert-butyl 4-(2-(4-methylbenzamido)-2-phenylethyl)piperidine-1-carboxylate] |
| 50.1 nM | CC(C)(C)OC(=O)N1CCC(CC(NC(=O)c2cccs2)c2ccccc2)CC1 (centres unmarked) [Example 131, tert-butyl 4-(2-phenyl-2-(thiophene-2-carboxamido)ethyl)piperidine-1-carboxylate] |
| 50.1 nM | CC(C)(C)OC(=O)N1CCC(CC(NC(=O)c2ccc(F)cc2)c2ccc(OC3CCCCC3)nc2)CC1 (centres unmarked) [Example 132, tert-butyl 4-(2-(6-(cyclohexyloxy)pyridin-3-yl)-2-(4-fluorobenzamido)ethyl)piperidine-1-carboxylate] |
| 50.1 nM | CC(C)(C)OC(=O)N1CCC(CC(NC(=O)c2ccc(C3CC3)c(F)c2)c2ccccc2)CC1 (centres unmarked) [Example 133, tert-butyl 4-(2-(4-cyclopropyl-3-fluorobenzamido)-2-phenylethyl)piperidine-1-carboxylate] |
| 50.1 nM | COC(=O)N1CCC(CC(NC(=O)c2ccc(Cl)cc2)c2ccccc2)CC1 (centres unmarked) [Example 134, methyl 4-(2-(4-chlorobenzamido)-2-phenylethyl)piperidine-1-carboxylate] |
| 50.1 nM | CC(C)(C)OC(=O)N1CCC(CC(NC(=O)c2ccc(Cl)cc2)C2CCCCC2)CC1 (centres unmarked) [Example 135, tert-butyl 4-(2-(4-chlorobenzamido)-2-cyclohexylethyl)piperidine-1-carboxylate] |
| 50.1 nM | Cc1ccc(C(=O)NC(CC2CCN(C(=O)C(F)(F)c3ccccn3)CC2)c2ccccc2)s1 (centres unmarked) [Example 136, N-(2-(1-(2,2-difluoro-2-(pyridin-2-yl)acetyl)piperidin-4-yl)-1-phenylethyl)-5-methylthiophene-2-carboxamide] |
| 50.1 nM | Cc1ccc(C(=O)NC(CC2CCN(c3ccccc3)CC2)c2ccccc2)s1 (centres unmarked) [Example 137, 5-methyl-N-(1-phenyl-2-(1-phenylpiperidin-4-yl)ethyl)thiophene-2-carboxamide] |
| 63.1 nM | CC(C)(C)OC(=O)N1CCC(CC(NC(=O)c2ccccc2)c2ccccc2)CC1 (centres unmarked) [Example 138, tert-butyl 4-(2-benzamido-2-phenylethyl)piperidine-1-carboxylate] |
| 63.1 nM | Cc1ccc(C(=O)NC(CC2CCN(C(=O)OC(C)(C)C)CC2)c2ccccc2)cc1F (centres unmarked) [Example 139, tert-butyl 4-(2-(3-fluoro-4-methylbenzamido)-2-phenylethyl)piperidine-1-carboxylate] |
| 63.1 nM | CN(Cc1ccccc1)c1nnc(C(CC2CCN(C(=O)OC(C)(C)C)CC2)NC(=O)c2ccc(Cl)s2)o1 (centres unmarked) [Example 140, tert-butyl 4-(2-(5-(benzyl(methyl)amino)-1,3,4-oxadiazol-2-yl)-2-(5-chlorothiophene-2-carboxamido)ethyl)piperidine-1-carboxylate] |
| 63.1 nM | CC(C)(C)OC(=O)N1CCC(CC(NC(=O)c2ccc(C#N)cc2)c2ccccc2)CC1 (centres unmarked) [Example 141, tert-butyl 4-(2-(4-cyanobenzamido)-2-phenylethyl)piperidine-1-carboxylate] |

| IC50 | SMILES |
| --- | --- |
| 63.1 nM | CC(C)(C)OC(=O)N1CCC(CC(CNCc2ccccc2)NC(=O)c2ccc(F)cc2)CC1 (centres unmarked) [Example 142, tert-butyl 4-(3-(benzylamino)-2-(4-fluorobenzamido)propyl)piperidine-1-carboxylate] |
| 79.4 nM | COc1ccc(C(=O)NC(CC2CCN(C(=O)OC(C)(C)C)CC2)c2ccccc2)cc1 (centres unmarked) [Example 143, tert-butyl 4-(2-(4-methoxybenzamido)-2-phenylethyl)piperidine-1-carboxylate] |
| 79.4 nM | CC(C)Oc1ccc(C(CC2CCN(C(=O)OC(C)(C)C)CC2)NC(=O)c2ccc(F)cc2)cn1 (centres unmarked) [Example 144, tert-butyl 4-(2-(4-fluorobenzamido)-2-(6-isopropoxypyridin-3-yl)ethyl)piperidine-1-carboxylate] |
| 79.4 nM | COC(=O)N1CCC(CC(NC(=O)c2ccc(F)cc2)c2ccc(OC)nc2)CC1 (centres unmarked) [Example 145, methyl 4-(2-(4-fluorobenzamido)-2-(6-methoxypyridin-3-yl)ethyl)piperidine-1-carboxylate] |
| 79.4 nM | CC(C)(C)OC(=O)N1CCC(CC(NC(=O)c2cccc(F)c2)c2ccccc2)CC1 (centres unmarked) [Example 146, tert-butyl 4-(2-(3-fluorobenzamido)-2-phenylethyl)piperidine-1-carboxylate] |
| 79.4 nM | CC(C)(C)OC(=O)N1CCC(CC(NC(=O)c2ccc(F)c(F)c2)c2ccccc2)CC1 (centres unmarked) [Example 147, tert-butyl 4-(2-(3,4-difluorobenzamido)-2-phenylethyl)piperidine-1-carboxylate] |
| 79.4 nM | CC(C)(C)OC(=O)N1CCC(C[C@H](Nc2nc3ccc(Cl)cc3o2)C2CC2)CC1 [Example 148, (S)-tert-butyl 4-(2-((6-chlorobenzo[d]oxazol-2-yl)amino)-2-cyclopropylethyl)piperidine-1-carboxylate] |
| 79.4 nM | CC#CCOc1ccc(C(=O)NC(CC2CCN(C(=O)OC(C)(C)C)CC2)c2ccccc2)cc1 (centres unmarked) [Example 149, tert-butyl 4-(2-(4-(but-2-yn-1-yloxy)benzamido)-2-phenylethyl)piperidine-1-carboxylate] |
| 79.4 nM | O=C(NC(CC1CCN(C(=O)OC2CCCCC2)CC1)c1ccccc1)c1ccc(Cl)cc1 (centres unmarked) [Example 150, cyclohexyl 4-(2-(4-chlorobenzamido)-2-phenylethyl)piperidine-1-carboxylate] |
| 79.4 nM | CC(C)(C)OC(=O)N1CCC(CC(NC(=O)c2ccc(Cl)cc2)C2CCCC2)CC1 (centres unmarked) [Example 151, tert-butyl 4-(2-(4-chlorobenzamido)-2-cyclopentylethyl)piperidine-1-carboxylate] |
| 79.4 nM | CC(C)(C)OC(=O)N1CCC(CC(NC(=O)c2ccc(F)cc2)C2CCCCC2)CC1 (centres unmarked) [Example 152, tert-butyl 4-(2-cyclohexyl-2-(4-fluorobenzamido)ethyl)piperidine-1-carboxylate] |
| 79.4 nM | Cc1cc(C(=O)NC(CC2CCN(C(=O)OC(C)(C)C)CC2)c2ccccc2)cs1 (centres unmarked) [Example 153, tert-butyl 4-(2-(5-methylthiophene-3-carboxamido)-2-phenylethyl)piperidine-1-carboxylate] |
| 79.4 nM | CCCC(=O)N1CCC(CC(NC(=O)c2ccc(Cl)cc2)c2ccccc2)CC1 (centres unmarked) [Example 154, N-(2-(1-butyrylpiperidin-4-yl)-1-phenylethyl)-4-chlorobenzamide] |
| 79.4 nM | C=CC[C@@H](CC1CCN(C(=O)OC(C)(C)C)CC1)NC(=O)c1ccc(Cl)s1 [Example 155, (S)-tert-butyl 4-(2-(5-chlorothiophene-2-carboxamido)pent-4-en-1-yl)piperidine-1-carboxylate] |
| 79.4 nM | Cc1ccc(C(=O)NC(CC2CCN(C(=O)c3ccccc3)CC2)c2ccccc2)s1 (centres unmarked) [Example 156, N-(2-(1-benzoylpiperidin-4-yl)-1-phenylethyl)-5-methylthiophene-2-carboxamide] |
| 100 nM | COc1ccc(C(=O)NC(CC2CCN(C(=O)OC(C)(C)C)CC2)c2ccccc2)cn1 (centres unmarked) [Example 157, tert-butyl 4-(2-(6-methoxynicotinamido)-2-phenylethyl)piperidine-1-carboxylate] |
| 100 nM | CCOC(=O)N1CCC(CC(NC(=O)c2ccc(OC)nc2)C2CC2)CC1 (centres unmarked) [Example 158, ethyl 4-(2-cyclopropyl-2-(6-methoxynicotinamido)ethyl)piperidine-1-carboxylate] |
| 100 nM | CC(C)(C)OC(=O)N1CCC(CC(NC(=O)c2ccsc2)c2ccccc2)CC1 (centres unmarked) [Example 159, tert-butyl 4-(2-phenyl-2-(thiophene-3-carboxamido)ethyl)piperidine-1-carboxylate] |
| 100 nM | CC(C)(C)OC(=O)N1CCC(CC(NC(=O)c2ccc(F)cc2)c2ccc(OCc3ccccc3)nc2)CC1 (centres unmarked) [Example 160, tert-butyl 4-(2-(6-(benzyloxy)pyridin-3-yl)-2-(4-fluorobenzamido)ethyl)piperidine-1-carboxylate] |

— patent US20210078988A1, “MODULATORS OF INDOLEAMINE 2,3-DIOXYGENASE” (GLAXOSMITHKLINE INTELLECTUAL PROPERTY DEVELOPMENT LIMITED, priority 2017, published 2021)
